# Assay results: US12115170B2, “Compositions and methods of clostridiodides difficile treatment, decolonization, and prevention” (Wisconsin Alumni Research Foundation, priority 2021, dated 2024)
# Where two headings read alike, the source gives them in different places.
# Experiments:
# [1] = test system: C. difficile ATCC 700057 (VPI 11186); assay: MIC by broth microdilution, control strain ATCC 700057; format: cell-based, Clostridioides difficile
# Experimental: (§1) Susceptibility testing: The minimum inhibitory concentration (MIC), defined as the lowest concentration of an antimicrobial that will inhibit the visible growth of a microorganism, was determined for all isolates. […] Microwell plates containing omadacycline and BHI were used on the same day as their creation, and all media were reduced for 24 h prior. Media used to inoculate plates were created by suspending 24-h colonies in BHI to a McFarland standard of 0.5, which was added to each well, sufficient to about 1×10^6 CFU/ml. A total volume of […] was used, and plates were read after 24 h of incubation in the anaerobic hood. The lowest concentration without growth was determined to be the MIC. In accordance with CLSI recommendations, C. difficile ATCC 700057 was used as a control for each plate.
# [2] = test system: C. difficile 4118 (ATCC 1870); assay: MIC by broth microdilution, ATCC 1870; format: cell-based; details: Clostridioides difficile
# Experimental: as §1
# [3] = test system: C. difficile ICCD 0715 (clinical strain); assay: MIC by broth microdilution, ICCD 0715; format: cell-based; details: Clostridioides difficile, 24 h
# Experimental: as §1
# [4] = test system: C. difficile VPI 10463 (ATCC 43255); assay: MIC by broth microdilution, VPI 10463; format: cell-based; details: Clostridioides difficile
# Experimental: as §1
# [5] = test system: C. difficile 630 (ATCC BAA-1382); assay: MIC by broth microdilution, 630; format: cell-based; details: Clostridioides difficile
# Experimental: as §1
# [6] = test system: C. difficile strains used in this study; assay: MIC by broth microdilution, range over the strains used in this study; format: cell-based; details: Clostridioides difficile, read-out: MICs
# Experimental: as §1
# [7] = test system: C. difficile spores (four strains tested); assay: Time-kill curves, S-CFU, four strains tested; format: cell-based, Clostridioides difficile
# [8] = test system: C. difficile ATCC 1870 vegetative cells; assay: Time-kill curves, T-CFU versus S-CFU, ATCC 1870; format: cell-based, Clostridioides difficile
# C. difficile VPI 10463 [9] = assay: CDI murine model, severe model; format: in vivo, C57BL/6 mice
# C. difficile VPI 10463 [10] = assay: CDI murine model, non-severe model; format: in vivo, C57BL/6 mice
# [11] = cited from earlier work; for Fecal concentration: clinical dosing, oral
# [12] = test system: C. difficile spores (all strains); assay: Spore washing and germination, all strains; details: 0.5 mg/ml docusate exposure
# [13] = ATCC 700057 (VPI 11186), R038, reduced BHI, 24 h, highest of replicates
# [14] = non-severe model, environmental contamination
structure (smiles),measurement,setting,value
"CN(C)c1cc(CNCC(C)(C)C)c(O)c2c1C[C@H]1C[C@H]3[C@H](N(C)C)C(O)=C(C(N)=O)C(=O)[C@@]3(O)C(O)=C1C2=O [Omadacycline, omadacycline]",MIC,[1]; [13],0.125 mg/L
same,MIC,"[1]; Clostridioides difficile, ATCC700057, ATCC 700057 (VPI 11186), R038, reduced BHI, 24 h, highest of replicates, read-out: MIC",0.125 mg/L
same,MIC,"[2]; ATCC1870, 4118 (ATCC 1870), R027, reduced BHI, 24 h, read-out: MIC",0.031 µg/mL
same,MIC,"[3]; ICCD 0715 (clinical strain), R027, reduced BHI, read-out: MIC",0.031 µg/mL
same,MIC,"[4]; ATCC43255, VP1 10463 (ATCC 43255), R087, reduced BHI, 24 h, read-out: MIC",0.063 µg/mL
same,MIC,"[5]; ATCCBAA1382, 630 (ATCC BAA-1382), R012, reduced BHI, 24 h, read-out: MIC",0.125 µg/mL
same,MIC,[6]; range for the strains used in this study,0.031 to 0.125 µg/mL
same,Effect on S-CFU,"[7]; antibiotic in BHI without germinants, throughout the treatment period (96 h), four strains",did not affect S-CFU
same,Killing of vegetative cells (T-CFU equaled S-CFU),"[8]; ATCC 1870, 24 to 96 h, with or without germinants",effective at killing vegetative cells
same,"Toxin amounts, day 1","C. difficile VPI 10463 [9]; mouse, in vivo",similar
same,Day 15 survival,"C. difficile VPI 10463 [9]; severe model, treatment started 30 hours after spore gavage, once daily until day 5, OMC 0.25 mg, VAN 1.5 mg oral gavage",60%
same,Mice succumbed to rCDI,C. difficile VPI 10463 [10]; by day 10,20%
same,"Final survival, survivors/total mice","C. difficile VPI 10463 [10]; mouse, in vivo",6/10
same,Mortality,"C. difficile VPI 10463 [10]; mouse, in vivo",40%
same,"Mice positive for C. difficile spores (spore shedding), day 15",C. difficile VPI 10463 [10]; non-severe model,60%
same,Final survival,"C. difficile VPI 10463 [10]; non-severe model, after clindamycin-induced relapse (days 10-12)",60%
same,"Positive cage swab rate, day 10",C. difficile VPI 10463 [10]; [14],8.3%
same,"Positive cage swabs, day 13",C. difficile VPI 10463 [10]; [14],no positive swabs
same,Fecal concentration,[11],approximately 430 mg/liter
same,Fecal excretion,[11]; in vivo,81%
"CN[C@H](CC(C)C)C(=O)N[C@H]1C(=O)N[C@@H](CC(N)=O)C(=O)N[C@H]2C(=O)N[C@H]3C(=O)N[C@H](C(=O)N[C@H](C(=O)O)c4cc(O)cc(O)c4-c4cc3ccc4O)[C@H](O)c3ccc(c(Cl)c3)Oc3cc2cc(c3O[C@@H]2O[C@H](CO)[C@@H](O)[C@H](O)[C@H]2O[C@H]2C[C@](C)(N)[C@H](O)[C@H](C)O2)Oc2ccc(cc2Cl)[C@H]1O [Vancomycin, vancomycin]",MIC,[1]; [13],2 mg/L
same,MIC,"[1]; Clostridioides difficile, ATCC700057, 24 h",2 mg/L
same,MIC,"[2]; ATCC1870, 24 h",2 µg/mL
same,MIC,[3],4 µg/mL
same,MIC,"[4]; ATCC43255, 24 h",1 µg/mL
same,MIC,"[5]; ATCCBAA1382, 24 h",4 µg/mL
same,MIC,[6],1 to 4 µg/mL
same,Effect on S-CFU,[7],did not affect S-CFU
same,Killing of vegetative cells (T-CFU equaled S-CFU),[8],effective at killing vegetative cells
same,"Median toxin A and B production, day 2","C. difficile VPI 10463 [9]; mouse, in vivo",significantly higher
same,"Toxin amounts, day 1","C. difficile VPI 10463 [9]; mouse, in vivo",similar
same,Weight loss and clinical scoring,"C. difficile VPI 10463 [9]; mouse, in vivo",higher
same,Day 15 survival,"C. difficile VPI 10463 [9]; mouse, in vivo, po",13.3%
same,Clinical scoring and weight loss (disease),"C. difficile VPI 10463 [10]; mouse, in vivo",more disease
same,Final survival,"C. difficile VPI 10463 [10]; mouse, in vivo",60%
same,"Final survival, survivors/total mice","C. difficile VPI 10463 [10]; mouse, in vivo",6/10
same,"Mice positive for C. difficile spores (spore shedding), day 15","C. difficile VPI 10463 [10]; mouse, in vivo",100%
same,Mice succumbed to rCDI,"C. difficile VPI 10463 [10]; mouse, in vivo",20%
same,Mortality,"C. difficile VPI 10463 [10]; mouse, in vivo",40%
same,"Positive cage swab rate, day 10","C. difficile VPI 10463 [10]; mouse, in vivo",8.3%
same,"Positive cage swabs, day 13","C. difficile VPI 10463 [10]; mouse, in vivo",25%
same,"Toxin amounts, day 10 and 13","C. difficile VPI 10463 [10]; mouse, in vivo",higher
same,Fecal concentration,[11],"2,000 mg/liter"
CCCCC(CC)COC(=O)CC(C(=O)OCC(CC)CCCC)S(=O)(=O)O (centres unmarked) [docusate],Percent germination compared to all other treatments,[12],highest percent germination
